According to publication PMC11879040, “Advancing systemic toxicity risk assessment: Evaluation of a NAM-based toolbox approach” (Toxicological Sciences, 2024):
Read-outs that look alike come from different tables or passages of the source.

Columns and labels:
CYP2C19 = conditions: PBK level L3, Intrinsic Liver Clearance, ref [12], cited from earlier work
[1] = ref [15-18]; cited from earlier work
[2] = molecular target: T1, Constitutive androstane receptor CAR, NR1I3 (h) (Homo sapiens, UniProt Q14994); type: biochemical
T1 sequence (Q14994 1-352): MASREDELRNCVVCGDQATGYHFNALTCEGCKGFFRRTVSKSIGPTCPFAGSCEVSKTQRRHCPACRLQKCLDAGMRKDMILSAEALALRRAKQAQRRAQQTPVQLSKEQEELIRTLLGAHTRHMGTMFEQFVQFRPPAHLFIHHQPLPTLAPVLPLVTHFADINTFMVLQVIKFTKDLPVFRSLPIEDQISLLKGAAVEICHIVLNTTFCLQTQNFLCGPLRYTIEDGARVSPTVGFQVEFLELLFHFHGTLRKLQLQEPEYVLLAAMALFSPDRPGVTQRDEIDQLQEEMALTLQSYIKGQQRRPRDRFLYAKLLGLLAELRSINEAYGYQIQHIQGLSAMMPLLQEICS

[3] = PBK level L2; taken or scaled from references (median where several); ref [6],[7],[10],[19]; cited from earlier work
[4] = molecular target: Androgen receptor, AR (h) (Homo sapiens, UniProt P10275); conditions: IPP screening at 10 uM; control testosterone
CYP2B6 = conditions: PBK level L3, Intrinsic Liver Clearance, ref [12], cited from earlier work
[5] = at the given pH, single value or median, cited from earlier work
[6] = molecular target: T2, Retinoic Acid Receptor gamma, RARG (h) (Homo sapiens, UniProt P13631); assay: IPP RARG binding (assay unavailable by end of study); conditions: 10 uM; ligand/control 9-cis-Retinoic acid; ** assay was unavailable by the end of the study
T2 construct: purchased Eurofins Cerep (SafetyScreen44-based IPP panel)

[7] = PBK input, levels L2/L3; ref [4]; cited from earlier work
[8] = PBK model plasma Cmax estimate (Gastroplus 9.8; levels L1, L2, L3); parameters: species or system human; conditions: therapeutic uses
[9] = molecular target: T3, Estrogen receptor beta, ESR2 (h) (Homo sapiens, UniProt Q92731); assay: IPP ESR2 coactivator recruitment (antagonist); type: biochemical; conditions: 100 uM, estriol, * denotes assay interference (2-Amino-6-chloro-4-nitrophenol, HC Red 3)
T3 construct: purchased Eurofins Cerep (SafetyScreen44-based IPP panel)

[10] = hepatic intrinsic clearance (Clint); conditions: PBK input
[11] = molecular target: T3, Estrogen receptor beta, ESR2 (h); assay: IPP ESR2 coactivator recruitment (agonist); type: biochemical; conditions: 100 uM, estriol, * denotes assay interference (2-Amino-6-chloro-4-nitrophenol, HC Red 3)
[12] = molecular target: T4, Vitamin D3 receptor, VDR (h) (Homo sapiens, UniProt P11473); type: biochemical; conditions: 10 uM; agonist; calcitriol for control
[13] = molecular target: T4, Vitamin D3 receptor, VDR (h); type: biochemical; conditions: 10 uM; antagonist; ligand calcitriol

T4 sequence (P11473 whole entry): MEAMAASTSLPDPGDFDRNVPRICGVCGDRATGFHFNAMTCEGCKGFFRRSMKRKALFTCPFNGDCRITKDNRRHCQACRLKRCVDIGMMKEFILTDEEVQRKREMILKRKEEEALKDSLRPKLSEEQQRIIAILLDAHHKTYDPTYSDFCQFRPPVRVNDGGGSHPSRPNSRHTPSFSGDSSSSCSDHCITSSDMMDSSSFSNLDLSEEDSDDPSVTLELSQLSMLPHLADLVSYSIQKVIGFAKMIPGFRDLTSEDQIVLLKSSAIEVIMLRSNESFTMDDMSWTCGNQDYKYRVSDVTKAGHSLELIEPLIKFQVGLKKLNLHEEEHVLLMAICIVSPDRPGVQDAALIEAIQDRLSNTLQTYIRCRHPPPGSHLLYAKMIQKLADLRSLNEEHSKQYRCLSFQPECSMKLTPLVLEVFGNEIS
T3 sequence (Q92731 whole entry): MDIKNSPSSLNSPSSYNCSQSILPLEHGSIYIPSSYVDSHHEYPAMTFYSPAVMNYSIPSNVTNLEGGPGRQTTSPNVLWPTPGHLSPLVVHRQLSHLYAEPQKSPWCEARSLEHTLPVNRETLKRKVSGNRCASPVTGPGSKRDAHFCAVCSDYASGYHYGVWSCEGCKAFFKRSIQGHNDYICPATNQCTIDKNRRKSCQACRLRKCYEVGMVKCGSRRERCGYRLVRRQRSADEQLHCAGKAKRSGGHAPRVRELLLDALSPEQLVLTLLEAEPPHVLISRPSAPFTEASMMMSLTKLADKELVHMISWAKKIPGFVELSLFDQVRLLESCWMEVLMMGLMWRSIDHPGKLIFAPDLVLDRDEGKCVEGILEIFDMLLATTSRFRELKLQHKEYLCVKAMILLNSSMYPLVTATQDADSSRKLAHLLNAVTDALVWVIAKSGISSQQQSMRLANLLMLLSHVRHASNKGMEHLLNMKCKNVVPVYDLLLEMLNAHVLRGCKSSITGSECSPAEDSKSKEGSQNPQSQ
T2 sequence (P13631 whole entry): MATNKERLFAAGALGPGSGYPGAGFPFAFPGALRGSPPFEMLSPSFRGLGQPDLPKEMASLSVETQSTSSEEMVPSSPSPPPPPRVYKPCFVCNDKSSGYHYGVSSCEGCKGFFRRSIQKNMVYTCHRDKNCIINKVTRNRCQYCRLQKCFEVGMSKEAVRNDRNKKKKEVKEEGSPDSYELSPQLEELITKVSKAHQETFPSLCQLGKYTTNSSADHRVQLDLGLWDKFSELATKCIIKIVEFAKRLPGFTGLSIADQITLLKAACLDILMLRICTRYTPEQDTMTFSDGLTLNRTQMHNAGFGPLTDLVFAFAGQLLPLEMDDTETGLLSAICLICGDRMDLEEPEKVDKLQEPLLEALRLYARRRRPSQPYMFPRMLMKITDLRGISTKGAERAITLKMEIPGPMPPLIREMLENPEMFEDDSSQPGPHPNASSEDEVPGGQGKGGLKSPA
Chain of Androgen receptor, AR (h) (P10275 whole entry): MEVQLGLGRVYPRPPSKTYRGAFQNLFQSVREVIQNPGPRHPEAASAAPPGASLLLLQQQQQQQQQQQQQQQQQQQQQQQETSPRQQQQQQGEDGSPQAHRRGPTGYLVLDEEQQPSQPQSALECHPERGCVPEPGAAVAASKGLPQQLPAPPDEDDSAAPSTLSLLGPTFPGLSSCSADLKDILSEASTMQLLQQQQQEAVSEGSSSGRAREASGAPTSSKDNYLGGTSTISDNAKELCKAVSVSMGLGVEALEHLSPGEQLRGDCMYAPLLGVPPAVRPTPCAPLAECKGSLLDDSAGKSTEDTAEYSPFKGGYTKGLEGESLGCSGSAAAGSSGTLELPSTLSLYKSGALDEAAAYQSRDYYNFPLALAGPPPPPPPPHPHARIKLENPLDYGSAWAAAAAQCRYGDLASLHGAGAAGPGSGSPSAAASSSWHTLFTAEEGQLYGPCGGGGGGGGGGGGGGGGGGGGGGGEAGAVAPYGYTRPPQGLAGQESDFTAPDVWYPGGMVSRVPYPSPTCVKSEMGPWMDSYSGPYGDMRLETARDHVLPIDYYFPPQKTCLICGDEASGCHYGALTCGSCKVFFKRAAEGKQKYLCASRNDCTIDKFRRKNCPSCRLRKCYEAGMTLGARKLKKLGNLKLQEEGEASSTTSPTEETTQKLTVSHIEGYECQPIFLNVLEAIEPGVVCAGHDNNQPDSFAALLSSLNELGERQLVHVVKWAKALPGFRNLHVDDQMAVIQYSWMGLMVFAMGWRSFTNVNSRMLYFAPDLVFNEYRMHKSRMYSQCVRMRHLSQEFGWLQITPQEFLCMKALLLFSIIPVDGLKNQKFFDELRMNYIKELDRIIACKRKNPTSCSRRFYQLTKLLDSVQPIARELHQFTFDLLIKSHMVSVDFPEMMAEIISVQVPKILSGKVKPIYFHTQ

Compound: CCOP(=S)(OCC)Oc1nc(Cl)c(Cl)cc1Cl [Chlorpyrifos, O,O-Diethyl O-(3,5,6-trichloropyridin-2-yl) phosphorothioate]
- Vmax CYP2C19 (TCP) (CYP2C19): 2296 uL/min/mol CYP
- Km (CYP2C19; read-out: km CYP2C19 (TCP)): 1090 nM
- oral reference dose [1]: 0.01 mg/kg bw/day
- IPP screening %, Coactivator recruitment [2]: -5.1%
- Intrinsic Liver Clearance [3]: 131.95 L/h
- Specific binding [4]: 5.8%
- Vmax CYP2B6 (CPFO) (CYP2B6): 418 uL/min/nmol CYP
- Km (CYP2B6; read-out: km CYP2B6 (CPFO)): 120 nM
- Aqueous Solubility ([5]; PBK level L2, ref [1],[4],[5],[10],[11],[17],[26]): 1.26 µg/mL
- Aqueous Solubility ([5]; PBK level L3, ref [4],[5],[10],[11]): 1.26 µg/mL

Compound: CC(C)(C)c1ccc(CCOc2ncnc3ccccc23)cc1 [Fenazaquin, 4-[2-(4-tert-Butylphenyl)ethoxy]quinazoline]
- IPP screening %, Specific binding [6]: 35.0%

Compound: CC1(C)O[C@@H]2[C@@H](CO[C@@]3(COS(N)(=O)=O)OC(C)(C)O[C@@H]23)O1 [Topiramate, [(3aS,5aR,8aR,8bS)-2,2,7,7-Tetramethyltetrahydro-2H,3aH,7H-bis[1,3]dioxolo[4,5-b:4',5'-d]pyran-3a-yl]methyl sulfamate (non-preferred name)]
- Fup [7]: 79.5%
- underprediction of the L3 result at L2 (Cmax) [8]: ≥ 5 fold
- IPP screening %, Coactivator recruitment [9]: -10.0%
- Intrinsic Liver Clearance ([10]; level L2, scaled from [6] internal data (unpublished)): 15.02 L/h
- Intrinsic Liver Clearance ([10]; level L3, optimised based on [39]): 0.874 L/h
- IPP screening %, Coactivator recruitment [11]: -2.0%

Compound: mixture of 2- and 3-tert-butyl-4-methoxyphenol [Butylated Hydroxyanisole]
- IPP screening %, Coactivator recruitment [12]: -0.1%
- IPP screening %, Coactivator recruitment [13]: 3.0%
